Measured values published in the supplement of paper PMC6461962.

Experiments:
[1] = tested on: Rhodanobacter sp. FW104-10B01
Method in brief: (§1)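 Growth was read as OD600 at 24 h, or at 48 h for R2A strain comparisons, after washed cells at a final OD600 of 0.02 (80 µL) were added to 384-well plates holding serially diluted inorganic ion salts or equimolar nitrilotriacetic acid complexes. Aerobic plates were shaken at 700 rpm at 30 °C, but anaerobic plates were not. IC50 was calculated with the drc R package from at least two biological replicate curves, scaled between water and growth-blocking antibiotic controls and excluding wells with precipitate.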

[2] = tested on: Pseudomonas fluorescens FW300-N2E2
Method in brief: as §1

[3] = medium / electron acceptor: 10B01 R2A/aerobic
[4] = medium / electron acceptor: 10B01 R2A/nitrate
[5] = medium / electron acceptor: N2E2 Glucose/aerobic
[6] = medium / electron acceptor: N2E2 Glucose/aerobic 0.25xMinerals
[7] = medium / electron acceptor: N2E2 Glucose/aerobic (2)
[8] = medium / electron acceptor: N2E2 KB/aerobic
[9] = medium / electron acceptor: N2E2 LB/aerobic
[10] = medium / electron acceptor: N2E2 LB/aerobic (2)
[11] = medium / electron acceptor: N2E2 LB/nitrate
[12] = medium / electron acceptor: N2E2 Lactate/aerobic
[13] = medium / electron acceptor: N2E2 R2A/aerobic

Structure (SMILES)	IC50 growth inhibition [1, 3] [mM]	IC50 growth inhibition [1, 4] [mM]	IC50 growth inhibition [2, 5] [mM]	IC50 growth inhibition [2, 6] [mM]	IC50 growth inhibition [2, 7] [mM]	IC50 growth inhibition [2, 8] [mM]	IC50 growth inhibition [2, 9] [mM]	IC50 growth inhibition [2, 10] [mM]	IC50 growth inhibition [2, 11] [mM]	IC50 growth inhibition [2, 12] [mM]	IC50 growth inhibition [2, 13] [mM]
O=P([O-])(O)O.[Na+] [Sodium phosphate monobasic monohydrate]	354	128	50.2	> 500	73.8	308	307	354	2.25	30.3	15.7
O=[Se]([O-])[O-].[Na+].[Na+] [Sodium selenite pentahydrate]	250	112	< 0.244	< 0.244	< 0.244	< 0.244	< 0.244	< 0.244	250	< 0.244	< 0.244
[F-].[Na+] [sodium fluoride]	354	11.6	< 0.244	< 0.244	< 0.244	0.322	1.11	1.1	0.497	0.477	2.9
O.O.O.O.O.O.[Cl][Ni][Cl] [Nickel (II) chloride hexahydrate]	1.03	1.82	0.0112	0.00556	0.0143	3.92	3.59	> 5	> 5	0.0276	0.221
[Cl][Hg][Cl] [mercury (II) chloride]	< 0.00244	< 0.00244	< 0.00244	< 0.00244	< 0.00244	< 0.00244	< 0.00244	< 0.00244	< 0.00244	< 0.00244	< 0.00244
[Cl-].[Cl-].[Sr+2] [Strontium chloride]	354	370	0.332	< 0.244	< 0.244	< 0.244	27.7	17.2	12.8	< 0.244	261
O.O.[Cl][Cu][Cl] [copper (II) chloride dihydrate]	> 5	> 5	0.0767	0.0767	0.0767	> 5	> 5	> 5	> 5	0.0767	0.525
O.O.O.O.O.O.[Cl][Cr]([Cl])[Cl] [Chromium(III) Chloride Hexahydrate]	2.16	3.46	< 0.00244	< 0.00244	< 0.00244	> 5	4.91	4.91	> 5	< 0.00244	0.322
[Cl-].[Rb+] [rubidium chloride]	354	> 500	17.4	251	15.7	349	387	384	284	168	> 500
